Measured values: BindingDB's records for doi:10.1016/0960-894X(95)00040-Z (1995)

Assay: Compound was tested for inhibitory activity against prostaglandin synthetase in mouse brain microsomes

With C1=C(CCN2CCOCC2)c2ccccc2/C1=C/c1ccccc1 [4-(2-{3-[1-Phenyl-meth-(E)-ylidene]-3H-inden-1-yl}-ethyl)-morpholine] the IC50 was 20 µM.
